The source of these data is patent publication US7342029B2, “Substituted indoles” (Sanofi-Aventis Deutschland GmbH, priority 1999, dated 2008).

In one data set the target is T1, IκB kinase (Homo sapiens, UniProt O14920+O15111).
T1 construct: endogenous in cells; host or cells: HeLa S3 cell extract S100 (ammonium sulfate cut, Superose-6 fractions at 670 kDa)
Briefly: IκB kinase ELISA. It is filed as biochemical. The note with it: kinase complex from HeLa S3 cell extract S100, activated with MEKK1Δ. Here is the method:
The activity of the IκB kinase was determined using an ELISA comprising a biotinilated substrate peptide containing the amino acid sequence in the protein IκB of serines 32 to 36 and a specific poly- or monoclonal antibody (for example from New England Biolabs, Beverly, Mass., USA, cat.: 9240), which binds only to the phosphorylated form of the peptide IκB. This complex was immobilized on an antibody-binding plate (coated with protein A) and detected using a conjugate of a biotin-binding protein and HRP (for example streptavidine HRP). The activity could be quantified using a standard curve with substrate phosphopeptide.
To obtain the kinase complex, 10 ml of HeLa S3 cell extract S100 were diluted with 40 ml 50 mM HEPES, pH 7.5, adjusted to 40% ammonium sulfate and incubated on ice for 30 minutes. The precipitated pellet was dissolved in 5 ml SEC buffer (50 mM HEPES, pH 7.5, 1 mM DTT, 0.5 mM EDTA, 10 mM 2-glycerophosphate), centrifuged at 20,000×g for 15 minutes and filtered through a 0.22 μm filter. The sample was applied to a 320 ml Superose-6 FPLC column (Amersham Pharmacia Biotech AB, Uppsala, Sweden) which had been equilibrated with SEC buffer and was operated at a flow rate of 2 ml/min at 4° C. The fractions which corresponded to the elution time of the 670 kDa molecular weight standard were combined for activation. Activation was achieved by a 45-minute-incubation with 100 nM MEKK1Δ, 250 μM MgATP, 10 mM MgCl2, 5 mM dithiothreitol (DTT), 10 mM 2-glycerophosphate, 2.5 μM microcystin LR at 37° C. The activated enzyme was stored at −80° C.
The test substances, dissolved in DMSO (2 μl), were preincubated at 25° C. with 43 μl of activated enzyme (diluted 1:25 in reaction buffer 50 mM HEPES, pH 7.5, 10 mM MgCl2, 5 mM DTT, 10 mM β-glycerophosphate, 2.5 μM microcystin LR) for 30 minutes. 5 μl of substrate peptide (biotin-(CH2)6-DRHDSGLDSMKD-CONH2) (200 μM) were added, the mixture was incubated for one hour and the reaction was quenched using 150 μl of 50 mM HEPES, pH 7.5, 0.1% BSA, 50 mM EDTA, antibody [1:200]. 100 μl of the quenched reaction mixture or a standard phosphopeptide dilution series (biotin-(CH2)6-DRHDS[PO3]GLDSMKD-CONH2) were then transferred to a protein A plate (Pierce Chemical Co., Rockford, Ill., USA) and incubated with shaking for 2 hours.
After 3 washing steps with PBS, 100 μl of 0.5 μg/ml of streptavidin HRP (horseradish peroxidase) (diluted in 50mM HEPES/0.1% BSA) were added for 30 minutes. After 5 washing steps with PBS, 100 μl of TMB substrate (Kirkegaard & Perry Laboratories, Gaithersburg, Md., USA) were added and the development of color was stopped by addition of 100 μl of 0.18 M sulfuric acid. Absorption was measured at 450 nm. The standard curve was generated by […] according to a 4-parameter dose-activity relation. Using this standard curve, the enzyme activity or their inhibition by test substances was quantified.
Each substance was tested in duplicate. The mean of the blank (without enzyme) was subtracted from the means (enzyme with and without substances), and the inhibition in % was calculated. IC50 calculations were carried out using the software package GraFit 3.0.
In general terms: ELISA stands for enzyme-linked immunosorbent assay.

In the next data set the test system is protein kinase C (PKC). The experiment in a line: PKC kinase inhibition (Upstate test kit). Conditions: substance concentration 100 μM; ATP 50 μM. The data set is classed as biochemical. How it is done: (§1) cAMP-dependent protein kinase (PKA), protein kinase C (PKC) and casein kinase II (CK II) were determined using the corresponding test kits of Upstate Biotechnologie according to the instructions of the manufacturer at an ATP concentration of 50 μM. However, instead of phosphocellulose filters, multi-screen plates (Millipore; Phosphocellulose MS-PH, cat. MAPHNOB10) with the corresponding aspiration system were used. The plates were then measured in a Wallac MicroBeta scintillation counter. In each case, 100 μM of test substance were used. Each substance was tested in duplicate. The mean of the blank (without enzyme) was subtracted from the means (enzyme with and without substances), and the inhibition in % was calculated. IC50 calculations were carried out using the software package GraFit 3.0.

Another data set has as its target T2, casein kinase II (CK II) (Homo sapiens, UniProt P68400).
T2 construct: purchased Upstate Biotechnologie
Briefly: CK II kinase inhibition (Upstate test kit). It is filed as biochemical. The note with it: substance concentration 100 μM; ATP 50 μM. Here is the method: as §1

Data set [1] concerns the target T3, cAMP-dependent protein kinase (PKA) (Homo sapiens, UniProt P17612).
T3 construct: purchased Upstate Biotechnologie
The experiment in a line: PKA kinase inhibition (Upstate test kit). The data set is classed as biochemical. Conditions: substance concentration 100 μM; ATP 50 μM. How it is done:
as §1

pIC50: −log10 of the molar value.

As a reminder, the pIC50 is the IC50 on a negative log10 scale, so that one unit is a factor of ten. The inhibition is the drop in the measured response relative to a control, in per cent. Higher therefore signals strong suppression. What is called melting point is the temperature, or range, at which the solid turns liquid.

T2 sequence (P68400 whole entry): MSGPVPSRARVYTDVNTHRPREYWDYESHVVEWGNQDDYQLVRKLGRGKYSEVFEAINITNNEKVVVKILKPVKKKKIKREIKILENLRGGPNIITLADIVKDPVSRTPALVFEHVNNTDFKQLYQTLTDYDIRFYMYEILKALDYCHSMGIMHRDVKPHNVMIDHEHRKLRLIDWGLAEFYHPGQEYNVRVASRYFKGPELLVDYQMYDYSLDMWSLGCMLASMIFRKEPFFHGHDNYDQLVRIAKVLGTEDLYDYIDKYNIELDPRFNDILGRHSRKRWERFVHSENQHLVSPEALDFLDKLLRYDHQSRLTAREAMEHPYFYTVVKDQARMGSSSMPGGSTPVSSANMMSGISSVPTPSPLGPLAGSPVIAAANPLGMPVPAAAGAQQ
T1 sequence (O14920 whole entry): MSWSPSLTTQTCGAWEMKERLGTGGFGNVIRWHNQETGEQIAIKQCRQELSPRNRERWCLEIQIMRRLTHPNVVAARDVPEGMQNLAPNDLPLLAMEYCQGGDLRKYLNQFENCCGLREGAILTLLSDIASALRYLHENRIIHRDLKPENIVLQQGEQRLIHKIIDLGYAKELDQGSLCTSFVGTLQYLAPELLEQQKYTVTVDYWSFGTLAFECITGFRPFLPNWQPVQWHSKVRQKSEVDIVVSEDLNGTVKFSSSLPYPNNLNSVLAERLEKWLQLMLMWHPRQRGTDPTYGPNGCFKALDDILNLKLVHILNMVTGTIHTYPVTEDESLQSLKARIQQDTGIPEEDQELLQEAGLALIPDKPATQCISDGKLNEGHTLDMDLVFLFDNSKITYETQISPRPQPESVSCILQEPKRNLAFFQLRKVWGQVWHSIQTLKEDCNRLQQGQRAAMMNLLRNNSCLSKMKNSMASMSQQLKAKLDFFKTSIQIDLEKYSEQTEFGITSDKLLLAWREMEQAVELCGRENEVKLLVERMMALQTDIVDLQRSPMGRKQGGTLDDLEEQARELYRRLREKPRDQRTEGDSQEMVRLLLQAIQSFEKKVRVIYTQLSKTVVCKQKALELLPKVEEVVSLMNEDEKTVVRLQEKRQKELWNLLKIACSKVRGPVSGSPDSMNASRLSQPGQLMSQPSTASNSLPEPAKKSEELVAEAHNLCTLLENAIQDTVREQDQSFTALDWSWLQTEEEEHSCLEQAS
T1 sequence (O15111 whole entry): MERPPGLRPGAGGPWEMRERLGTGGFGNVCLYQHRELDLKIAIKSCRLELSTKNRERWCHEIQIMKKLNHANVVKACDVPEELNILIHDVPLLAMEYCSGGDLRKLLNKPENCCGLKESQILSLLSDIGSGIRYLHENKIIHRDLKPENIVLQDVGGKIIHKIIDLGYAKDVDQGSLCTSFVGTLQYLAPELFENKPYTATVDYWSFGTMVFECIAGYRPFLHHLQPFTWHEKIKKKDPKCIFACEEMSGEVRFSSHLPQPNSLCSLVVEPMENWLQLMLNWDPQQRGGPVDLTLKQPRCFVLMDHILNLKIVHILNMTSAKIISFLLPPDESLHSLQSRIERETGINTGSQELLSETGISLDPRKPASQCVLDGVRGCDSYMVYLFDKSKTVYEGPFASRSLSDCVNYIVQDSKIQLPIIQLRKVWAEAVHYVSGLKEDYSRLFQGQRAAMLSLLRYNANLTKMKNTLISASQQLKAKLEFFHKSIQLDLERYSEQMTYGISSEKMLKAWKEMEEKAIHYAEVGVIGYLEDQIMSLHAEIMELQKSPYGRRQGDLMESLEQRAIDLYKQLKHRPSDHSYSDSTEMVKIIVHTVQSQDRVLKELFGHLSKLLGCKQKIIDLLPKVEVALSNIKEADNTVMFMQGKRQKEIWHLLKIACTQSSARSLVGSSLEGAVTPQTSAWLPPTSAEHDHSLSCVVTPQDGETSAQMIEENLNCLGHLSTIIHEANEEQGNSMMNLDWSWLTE
T1 sequence (Q9Y6K9 whole entry partner): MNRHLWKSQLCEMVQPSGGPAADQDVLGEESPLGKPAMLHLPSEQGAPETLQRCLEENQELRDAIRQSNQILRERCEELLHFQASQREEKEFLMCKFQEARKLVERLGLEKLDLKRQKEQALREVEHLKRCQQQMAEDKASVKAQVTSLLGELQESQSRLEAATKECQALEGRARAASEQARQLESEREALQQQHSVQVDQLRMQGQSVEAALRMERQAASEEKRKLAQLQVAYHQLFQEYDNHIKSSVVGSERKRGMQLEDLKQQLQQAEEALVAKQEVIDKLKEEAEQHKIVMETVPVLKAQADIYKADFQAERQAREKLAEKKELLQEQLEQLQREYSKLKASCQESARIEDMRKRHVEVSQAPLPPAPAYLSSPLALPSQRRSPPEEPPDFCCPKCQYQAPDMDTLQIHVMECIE

On IκB kinase, `O=C(N[C@@H](CSc1ccccc1)C(=O)O)c1ccc2[nH]c(-c3ccncc3)cc2c1` [Example 4] gave a pIC50 of 6.30. In the data set with protein kinase C (PKC), this compound returned a PKC % inhibition of 33%. For the same compound, the results for the inhibition at 100 µM (on casein kinase II (CK II); in data set [1]) were 47% and 42%, respectively.

`Cc1c(-c2ccncc2)[nH]c2ccc(C(=O)N[C@@H](CSc3ccccc3)C(=O)O)cc12` [Example 5] had a pIC50 against IκB kinase of 5.74. For the same compound, the PKC % inhibition in the data set with protein kinase C (PKC) is recorded as 8%. The inhibition at 100 µM against casein kinase II (CK II) is 27%; in data set [1] it was 55%.

The compound `Cc1c(-c2ccncc2)[nH]c2ccc(C(=O)N[C@@H](CCn3cccc3)C(N)=O)cc12` [Example 7, N-(1-Carbamoyl-3-pyrrol-1-ylpropyl)-3-methyl-2-pyridin-4-yl-1H-indole-5-carboxamide] showed a pIC50 at IκB kinase of 5.52. On casein kinase II (CK II), this compound showed an inhibition at 100 µM of 18%.

Take `Cc1c(-c2ccncc2)[nH]c2ccc(C(=O)N[C@@H](CSc3ccccc3)C(N)=O)cc12` [Example 6]: the pIC50 against IκB kinase was 5.31. The compound also returned a PKC % inhibition in the data set with protein kinase C (PKC) of 58%. In addition, the inhibition at 100 µM amounted to 39% on casein kinase II (CK II) and 60% in data set [1].

Take `NC(=O)[C@H](CCc1ccccc1)NC(=O)c1ccc2[nH]c(-c3ccncc3)cc2c1` [Example 2]: the pIC50 on IκB kinase was 6.21. Also, the PKC % inhibition with protein kinase C (PKC) is given as 15%. For the same compound, the values for the inhibition at 100 µM (on casein kinase II (CK II); in data set [1]) were 35% and 24%, respectively.

The compound `CCN(C[C@H](NC(=O)c1ccc2[nH]c(-c3ccncc3)cc2c1)C(N)=O)c1ccccc1` [Example 9] had a negative-log IC50 (pIC50) at IκB kinase of 6.00. The compound further showed a PKC % inhibition in the data set on protein kinase C (PKC) of 23%. Further, the inhibition at 100 µM (at casein kinase II (CK II); in data set [1]) was 0% in each case.

`NC(=O)[C@H](CCc1ccccc1)NC(=O)c1ccc2[nH]c(-c3ccccc3)c(-c3ccccc3)c2c1` [Example 1, N-(1-Carbamoyl-3-phenylpropyl)-2,3-diphenyl-1H-indole-5-carboxamide] displayed a melting point of 120 to 125 °C. Besides, the pIC50 on IκB kinase was 4.49.

`NC(=O)[C@H](CSc1ccccc1)NC(=O)c1ccc2[nH]c(-c3ccncc3)cc2c1` (stereo in doubt) [Example 3, N-(1-carbamoyl-2-phenylsulfanylethyl)-2-pyridin-4-yl-1H-indole-5-carboxamide]: on IκB kinase, the pIC50 was 6.26. In the data set on protein kinase C (PKC), this compound showed a PKC % inhibition of 39%. In addition, the inhibition at 100 µM came out at 37% at casein kinase II (CK II) and 35% in data set [1].
